Earlier results as cited in patent publication US6589744B2, “Method and kit for identification for nucleic acid modification enzymes and inhibitors thereof” (Syngenta Participations AG, priority 2001, dated 2003).
pIC50: −log10 of the molar value.

Target: T1, T4 DNA ligase (Enterobacteria phage T4, UniProt P00970)
T1 sequence (P00970 1-487): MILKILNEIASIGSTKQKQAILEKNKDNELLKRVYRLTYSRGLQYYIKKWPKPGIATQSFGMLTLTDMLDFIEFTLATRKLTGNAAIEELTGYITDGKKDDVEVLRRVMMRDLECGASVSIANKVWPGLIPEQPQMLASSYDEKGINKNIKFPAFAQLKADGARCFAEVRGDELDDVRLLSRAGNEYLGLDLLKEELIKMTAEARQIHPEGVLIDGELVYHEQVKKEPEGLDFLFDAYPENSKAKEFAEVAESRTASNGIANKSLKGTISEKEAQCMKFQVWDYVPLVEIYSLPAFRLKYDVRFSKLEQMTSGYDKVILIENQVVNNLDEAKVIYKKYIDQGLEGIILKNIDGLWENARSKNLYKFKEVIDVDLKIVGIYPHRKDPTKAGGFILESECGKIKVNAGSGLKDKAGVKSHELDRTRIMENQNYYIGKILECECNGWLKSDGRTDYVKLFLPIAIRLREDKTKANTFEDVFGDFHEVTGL
Settings: previously determined, radiolabeled substrates and PAGE gel shift assays (Montecucco et al.)

pIC50: 5.57
Structure (SMILES): COc1cccc2c1C(=O)c1c(O)c3c(c(O)c1C2=O)C[C@@](O)(C(=O)CO)C[C@@H]3O[C@H]1C[C@H](N)[C@@H](O)[C@H](C)O1 [Epirubicin, epirubicin]
